For 37 compounds, viability results are on record in paper PMC11995724, “Antibiotic target discovery by integrated phenotypic and activity-based profiling of electrophilic fragments” (Cell chemical biology, 2025).

Each structure is given as a SMILES string. Counter-ions that a name gives are not always drawn.

This series is described as follows: in vitro. Particulars: human, hek293t cells.
In the case of `CCN(C(=O)CCl)C(c1ccccc1)c1ccc(F)cc1` (stereo not shown) [6-J11, 2-chloro-N-ethyl-N-[(4-fluorophenyl)(phenyl)methyl]acetamide], the viability at 48 h, 25 µM stood at 0.263%. The figure for `O=C(CCl)Nc1cc(S(=O)(=O)N2CCOCC2)ccc1O` [6-J12, 2-chloro-N-[2-hydroxy-5-(morpholine-4-sulfonyl)phenyl]acetamide] is 116%. As to `COCC1(NC(=O)C(C)Cl)CC=CCC1` (stereo not shown) [6-J13, 2-chloro-N-[1-(methoxymethyl)cyclohex-3-en-1-yl]propanamide], the viability at 48 h, 25 µM worked out at 107%.

Consider `CC(Cl)C(=O)N(C)C(C)c1cccc(NC(=O)c2ccccc2)c1` (stereo not shown) [6-J14, N-{3-[1-(2-chloro-N-methylpropanamido)ethyl]phenyl}benzamide], for which the viability at 48 h, 25 µM was determined as 111%. On to `CC(Cl)C(=O)N1CC(Oc2ccc(C#N)cc2)C1` (stereo not shown) [6-J15, 4-{[1-(2-chloropropanoyl)azetidin-3-yl]oxy}benzonitrile], for which the viability at 48 h, 25 µM was determined as 97.1%. The value for `CC(Cl)C(=O)NC1CCCn2nccc21` (stereo not shown) [6-J16, 2-chloro-N-{4H,5H,6H,7H-pyrazolo[1,5-a]pyridin-4-yl}propanamide] was 113%; that for `CC(Cl)C(=O)N1CCNC(=O)C1c1cccs1` (stereo not shown) [6-J17, 4-(2-chloropropanoyl)-3-(thiophen-2-yl)piperazin-2-one] was 106%; that for `CC(Cl)C(=O)N1CCC(c2nc3cc(F)ccc3s2)CC1` (stereo not shown) [6-J18, 2-chloro-1-[4-(5-fluoro-1,3-benzothiazol-2-yl)piperidin-1-yl]propan-1-one] was 78.9%.

As to `CC(Cl)C(=O)NC1CC(=O)N(Cc2ccccc2C(F)(F)F)C1` (stereo not shown) [6-J19, 2-chloro-N-(5-oxo-1-{[2-(trifluoromethyl)phenyl]methyl}pyrrolidin-3-yl)propanamide], the viability at 48 h, 25 µM is 108%. The figure for `CC(Cl)C(=O)N(C)C1CCN(c2ccccn2)CC1` (stereo not shown) [6-J20, 2-chloro-N-methyl-N-[1-(pyridin-2-yl)piperidin-4-yl]propanamide] is 106%; for `CC(Cl)C(=O)N(C)C1CCS(=O)(=O)CC1` (stereo not shown) [6-J21, 2-chloro-N-(1,1-dioxo-1lambda6-thian-4-yl)-N-methylpropanamide] it is 99.1%. The value for `CC(Cl)C(=O)N1CCCC(CNC(=O)Nc2ccc(F)cc2)C1` (stereo not shown) [6-J22, 3-{[1-(2-chloropropanoyl)piperidin-3-yl]methyl}-1-(4-fluorophenyl)urea] was 105%. The figure for `Cc1ccsc1-c1nnc(NC(=O)CCl)o1` [6-K03, 2-chloro-N-[5-(3-methylthiophen-2-yl)-1,3,4-oxadiazol-2-yl]acetamide] is 72.7%. `CC1CCCN(Cc2ccc(CNC(=O)CCl)cc2)C1` (stereo not shown) [6-K04, 2-chloro-N-({4-[(3-methylpiperidin-1-yl)methyl]phenyl}methyl)acetamide hydrochloride]: the viability at 48 h, 25 µM came out at 56.4%. With `CCc1ccc(CNC(=O)CCl)s1` [6-K05, 2-chloro-N-[(5-ethylthiophen-2-yl)methyl]acetamide], the viability at 48 h, 25 µM stood at 5.18%. The figure for `Cc1cc(C)c(CCNC(=O)CCl)c(C)c1` [6-K06, 2-chloro-N-[2-(2,4,6-trimethylphenyl)ethyl]acetamide] is 14.3%.

`O=C(CCl)Nc1ccc(OCc2ccccc2)cc1` [6-K07, N-[4-(benzyloxy)phenyl]-2-chloroacetamide]: the viability at 48 h, 25 µM stood at 0.0552%. With `O=C(CCl)NC(c1ccc(F)cc1)C1CCCC1` (stereo not shown) [6-K08, 2-chloro-N-[cyclopentyl(4-fluorophenyl)methyl]acetamide], the viability at 48 h, 25 µM was found to be 1.04%. The figure for `CC(Cl)C(=O)Nc1c(Cl)cc(Cl)cc1Cl` (stereo not shown) [6-K09, 2-chloro-N-(2,4,6-trichlorophenyl)propanamide] is 115%.

As to `O=C(CCl)NCc1ccccc1C(F)(F)F` [6-K10, 2-chloro-N-{[2-(trifluoromethyl)phenyl]methyl}acetamide], the viability at 48 h, 25 µM amounted to 2.67%. For the compound `CCC(C)c1ccccc1NC(=O)CCl` (stereo not shown) [6-K11, N-[2-(butan-2-yl)phenyl]-2-chloroacetamide], the viability at 48 h, 25 µM came to 0.743%. The figure for `COc1cc2c(cc1OC)C(c1ccccc1)N(C(=O)CCl)CC2` (stereo not shown) [6-K12, 2-chloro-1-(6,7-dimethoxy-1-phenyl-1,2,3,4-tetrahydroisoquinolin-2-yl)ethan-1-one] is 0.105%; for `O=C(CCl)Nc1ccc(Cl)c(S(=O)(=O)N2CCOCC2)c1` [6-K13, 2-chloro-N-[4-chloro-3-(morpholine-4-sulfonyl)phenyl]acetamide] it is 0.541%; for `O=C(CCl)NCc1ccccc1CN1CCCC1=O` [6-K14, 2-chloro-N-({2-[(2-oxopyrrolidin-1-yl)methyl]phenyl}methyl)acetamide] it is 2.03%. Consider `CC(Cl)C(=O)Nc1ccc(F)cc1` (stereo not shown) [6-K15, 2-chloro-N-(4-fluorophenyl)propanamide], for which the viability at 48 h, 25 µM came out at 113%.

Consider `CC(C#N)CSc1ccccc1NC(=O)CCl` (stereo not shown) [6-K16, 2-chloro-N-{2-[(2-cyano-2-methylethyl)sulfanyl]phenyl}acetamide], for which the viability at 48 h, 25 µM was 1.3%. The figure for `O=C(CCl)Nc1nnc(-c2ccccc2Cl)s1` [6-K17, 2-chloro-N-[5-(2-chlorophenyl)-1,3,4-thiadiazol-2-yl]acetamide] is 0.539%; for `CC(C)c1ccc(CN(C(=O)CCl)C2CC2)cc1` [6-K18, 2-chloro-N-cyclopropyl-N-{[4-(propan-2-yl)phenyl]methyl}acetamide] it is 1.65%.

As for `Cc1cc(CO[C@H]2CC[C@H](NC(=O)CCl)CC2)on1` [6-K19, 2-chloro-N-[(1r,4r)-4-[(3-methyl-1,2-oxazol-5-yl)methoxy]cyclohexyl]acetamide], the viability at 48 h, 25 µM turned out to be 88.1%. As for `O=C(CCl)NCCc1nc2ccccc2s1` [6-K20, N-[2-(1,3-benzothiazol-2-yl)ethyl]-2-chloroacetamide], the viability at 48 h, 25 µM amounted to 98%.

As for `CC(Cl)C(=O)NC1CC=CCC1` (stereo not shown) [6-K21, 2-chloro-N-(cyclohex-3-en-1-yl)propanamide], the viability at 48 h, 25 µM was 114%. The figure for `CC(=O)c1cccc(NC(=O)C(C)Cl)c1` (stereo not shown) [6-K22, N-(3-acetylphenyl)-2-chloropropanamide] is 105%. For the compound `CC(Cl)C(=O)NC1CCCN(S(=O)(=O)N2CCOCC2)C1` (stereo not shown) [6-L03, 2-chloro-N-[1-(morpholine-4-sulfonyl)piperidin-3-yl]propanamide], the viability at 48 h, 25 µM is 111%. On to `O=C(CCl)N1N=C(c2cccs2)CC1c1cccc(O)c1` (stereo not shown) [6-L04, 2-chloro-1-[5-(3-hydroxyphenyl)-3-(thiophen-2-yl)-4,5-dihydro-1H-pyrazol-1-yl]ethan-1-one], for which the viability at 48 h, 25 µM is 0.561%. The value for `CC(Cl)C(=O)N1CCOC(c2ccnc(N(C)C)n2)C1` (stereo not shown) [6-L05, 2-chloro-1-{2-[2-(dimethylamino)pyrimidin-4-yl]morpholin-4-yl}propan-1-one] was 99.1%; that for `CCc1ccccc1NC(=O)CN(C)C(=O)CCl` [6-L06, 2-chloro-N-{[(2-ethylphenyl)carbamoyl]methyl}-N-methylacetamide] was 0.728%; that for `CC(NC(=O)CCl)c1nc(Cc2ccccc2)no1` (stereo not shown) [6-L07, N-[1-(3-benzyl-1,2,4-oxadiazol-5-yl)ethyl]-2-chloroacetamide] was 1.28%.

For orientation: viability means a read-out of living cells in per cent, often relative to untreated cells.
